Experiments:
[1] = target: T1, FK506 Binding Protein 12 kDa (FKBP12) (Homo sapiens, UniProt P62942); assay: TR-FRET competition with fluorescein-labeled SLF
[2] = target: T1, FK506 Binding Protein 12 kDa (FKBP12); assay: TR-FRET tracer binding

T1 sequence (P62942 2-108): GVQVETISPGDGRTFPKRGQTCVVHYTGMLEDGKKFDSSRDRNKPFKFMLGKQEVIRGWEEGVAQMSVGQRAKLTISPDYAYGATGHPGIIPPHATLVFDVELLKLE

IC50 [1]	Compound	Kd [2]
200 nM	CCC(C)(C)C(=O)C(=O)N1CCCC[C@H]1C(=O)O[C@H](CCc1ccc(OC)c(OC)c1)c1cccc(OCC(=O)O)c1 [SLF-OH]	
	SLF-Fl	30 nM

Source: paper PMC2967433 (Bioconjugate chemistry, 2010)
